Experimental data taken from US12721853B2, “Applications of CX-5461 in treating immune rejection in renal transplantation” (Sun Yat-sen University, priority 2022, dated 2026).

How the values were obtained:
[1] = tested on: IL-6, IL-10 cytokines in serum; experiment: ELISA of cytokines in serum after renal transplantation; type: in vivo, rat; details: seventh day after renal transplantation, compared with AR group, ***P<0.001
Description: • (1) Lewis male rats and Brown Norway male rats are purchased from Beijing Vital River Laboratory Animal Technology Co., Ltd., with weight of around 200 g and age of 6-8 weeks old, and the rearing environment is of SPF level. • (2) Establishment of acute rejection model after renal transplantation in rats: the donor of Brown Norway male rats aged 6-8 weeks, about 200 g, is transplanted into Lewis male rats, and the surgical scheme is end-to-end renal vein anastomosis as reported in most literatures. The experimental groups are divided into normal group (Control) of donor rats, acute rejection (AR) group and drug group (CX5461 of 2 mg/kg) with 5 rats each. After successful renal transplantation, the rats are killed at 3 days, 5 days and 7 days after operation, and blood is collected from the lower abdominal aorta by using a 5 mL sterile syringe. […] Subsequently, the concentration and purity of total RNA are measured using a Nanodrop. Using the RNA as a template, reverse transcription is performed by reverse transcription kit of Beijing TransGen Biotech Company to obtain a cDNA template, and quantitative PCR analysis is carried out by using this cDNA as a template and using TransGen qPCR kit according to the instructions and the detection primers shown in Table 1 below. […]

Treg cells in the spleen = experiment: CD4+CD25+Foxp3+ flow cytometry of spleen; type: in vivo, rat; details: seventh day after renal transplantation
[2] = tested on: IL-6, IL-10, IL-17A cytokines in spleen; experiment: Real-time RT-PCR of cytokines in spleen after renal transplantation; type: in vivo, rat; details: seventh day after renal transplantation, compared with AR group, ***P<0.001
Description: • (1) Lewis male rats and Brown Norway male rats are purchased from Beijing Vital River Laboratory Animal Technology Co., Ltd., with weight of around 200 g and age of 6-8 weeks old, and the rearing environment is of SPF level. • (2) Establishment of acute rejection model after renal transplantation in rats: the donor of Brown Norway male rats aged 6-8 weeks, about 200 g, is transplanted into Lewis male rats, and the surgical scheme is end-to-end renal vein anastomosis as reported in most literatures. The experimental groups are divided into normal group (Control) of donor rats, acute rejection (AR) group and drug group (CX5461 of 2 mg/kg) with 5 rats each. After successful renal transplantation, the rats are killed at 3 days, 5 days and 7 days after operation, and blood is collected from the lower abdominal aorta by using a 5 mL sterile syringe. The collected blood is placed in a procoagulants tube at room temperature for 1 h, centrifuged at 4000 r/min in a centrifuge at 4° C. for 10 min, and the obtained serum is packaged in an EP tube and frozen at −80° C. for enzyme-linked immunosorbent assay (ELISA) detection. […] Subsequently, the concentration and purity of total RNA are measured using a Nanodrop. Using the RNA as a template, reverse transcription is performed by reverse transcription kit of Beijing TransGen Biotech Company to obtain a cDNA template, and quantitative PCR analysis is carried out by using this cDNA as a template and using TransGen qPCR kit according to the instructions and the detection primers shown in Table 1 below.

[3] = Survival of rats after renal transplantation; type: in vivo, rat; details: compared with acute rejection group
Description: (§1) • (1) Lewis male rats and Brown Norway male rats are purchased from Beijing Vital River Laboratory Animal Technology Co., Ltd., with weight of around 200 g and age of 6-8 weeks old, and the rearing environment is of SPF level. • (2) Establishment of acute rejection model after renal transplantation in rats: the donor of Brown Norway male rats aged 6-8 weeks, about 200 g, is transplanted into Lewis male rats, and the surgical scheme is end-to-end renal vein anastomosis as reported in most literatures. The experimental groups are divided into normal group (Control) of donor rats, acute rejection (AR) group and drug group (CX5461 of 2 mg/kg) with 5 rats each. After successful renal transplantation, the rats are killed at 3 days, 5 days and 7 days after operation, and blood is collected from the lower abdominal aorta by using a 5 mL sterile syringe. […] Subsequently, the concentration and purity of total RNA are measured using a Nanodrop. Using the RNA as a template, reverse transcription is performed by reverse transcription kit of Beijing TransGen Biotech Company to obtain a cDNA template, and quantitative PCR analysis is carried out by using this cDNA as a template and using TransGen qPCR kit according to the instructions and the detection primers shown in Table 1 below.

transplanted kidney = experiment: H&E staining and immunohistochemical staining (anti-IL-17A) of transplanted kidney; type: in vivo, rat; details: seventh day after renal transplantation
[4] = Creatinine and urea nitrogen levels in blood after renal transplantation; type: in vivo, rat
Description: • (1) Lewis male rats and Brown Norway male rats are purchased from Beijing Vital River Laboratory Animal Technology Co., Ltd., with weight of around 200 g and age of 6-8 weeks old, and the rearing environment is of SPF level. • (2) Establishment of acute rejection model after renal transplantation in rats: the donor of Brown Norway male rats aged 6-8 weeks, about 200 g, is transplanted into Lewis male rats, and the surgical scheme is end-to-end renal vein anastomosis as reported in most literatures. The experimental groups are divided into normal group (Control) of donor rats, acute rejection (AR) group and drug group (CX5461 of 2 mg/kg) with 5 rats each. […] The collected blood is placed in a procoagulants tube at room temperature for 1 h, centrifuged at 4000 r/min in a centrifuge at 4° C. for 10 min, and the obtained serum is packaged in an EP tube and frozen at −80° C. for enzyme-linked immunosorbent assay (ELISA) detection. The removed transplanted kidney is cut in half along the longitudinal axis and soaked in 4% paraformaldehyde for pathological reaction verification. • (3) Real-time RT-PCR analysis: RNA is extracted from rat spleen by using Trizol method, and the specific operation is as follows: 1 mL of Trizol is added to the EP tube containing rat spleen and placed in the refrigerator at 4° C. for 10 min; then, porcelain beads are added into it and put into an automatic grinder, and ground at 4° C. for 5 min; 0.2 mL chloroform (i.e., ⅕ Trizol volume) is added into the EP tube, followed by shaking vigorously for about 20 times, then centrifuging at 12,500 rpm at 4° C. for 15 min; the obtained upper aqueous phase is placed in a new EP tube and carefully aspirated about 3 times with a 200 μL gun tip, and approximately an equal volume of isopropanol (i.e., 600 μL) is added, and the RNA is precipitated by centrifugation at 12,500 rpm for 15 min at 4° C., at which time a white RNA precipitate is seen. Then, 1 ml of 75% ethanol is added for washing twice, followed by centrifugation at 12500 rpm and 4° C. for 5 min. The supernatant is discarded and the precipitated RNA is allowed to dry naturally in an ultra-clean bench. RNA is obtained by dissolving the RNA precipitate with 100 μL of Rnase-free water. Subsequently, the concentration and purity of total RNA are measured using a Nanodrop. Using the RNA as a template, reverse transcription is performed by reverse transcription kit of Beijing TransGen Biotech Company to obtain a cDNA template, and quantitative PCR analysis is carried out by using this cDNA as a template and using TransGen qPCR kit according to the instructions and the detection primers shown in Table 1 below.

Pol II = details: cited from earlier work
[5] = tested on: Pol I-driven rRNA transcription; details: cited from earlier work
renal implants = experiment: Appearance of the kidney graft, acute rejection model after renal transplantation in rats; type: in vivo, rat; details: seventh day after renal transplantation, CX5461 of 2 mg/kg, compared with acute rejection group (AR)
Description: as §1

[6] = third, fifth and seventh day after renal transplantation, AR group continues to increase
[7] = within 42 days after renal transplantation

Q: What does the source list for `Cc1cnc(CNC(=O)c2c(=O)c3ccc(N4CCCN(C)CC4)nc3n3c2sc2ccccc23)cn1` [CX-5461]?
A: IL-6 cytokine in serum [1]: significantly down-regulated; IL-10 cytokine in serum [1]: up-regulated; proportion of Treg cells (CD4+CD25+Foxp3+) in the spleen (Treg cells in the spleen): obviously increased; IL-6 cytokine in spleen [2]: significantly down-regulated; IL-10 cytokine in spleen [2]: significantly up-regulated; IL-17A cytokine in spleen [2]: significantly down-regulated; survival time of rats after renal transplantation [3]: significantly longer; IL-17A cytokine in kidney transplant (immunohistochemistry) (transplanted kidney): reducing the levels of IL-17A cytokine; changes in renal tubules (H&E staining) (transplanted kidney): no obvious changes in renal tubules; glomerulus shrinkage (H&E staining) (transplanted kidney): no obvious shrinkage; infiltration of inflammatory cells (staining) (transplanted kidney): no obvious infiltration of inflammatory cells; renal fibrosis (staining) (transplanted kidney): reduced renal fibrosis; creatinine level [4, 6]: remain at a low level; urea nitrogen level [4, 6]: remain at a low level; creatinine level [4, 7]: remain at a relatively low level; urea nitrogen level [4, 7]: remain at a relatively low level; effect on Pol II (Pol II): no effect; IC50 ([5]; HCT-116, A375, and MIA PaCa-2 cells, read-out: IC50, inhibition of Pol I-driven rRNA transcription): 142 nM; selectivity of rRNA transcription inhibition over DNA replication and protein translation [5]: 250- to 300 fold; inflammatory immune infiltration, appearance of the kidney graft (renal implants): no obvious inflammatory immune infiltration; renal fibrosis, appearance of the kidney graft (renal implants): less renal fibrosis
